Experimental data taken from PMC7429951 (Journal of Medicinal Chemistry, 2020).

Experiments:
ColH = details: literature inhibitor; cited from earlier work
in vitro [1] = details: human, HepG2 cells (hepatocellular carcinoma)
in vitro [2] = details: human, A549 cells (lung carcinoma)
in vitro [3] = details: human, HEK293 cells (embryonal kidney)
LasB = LasB (Pseudomonas aeruginosa, UniProt Q02RJ6); assay: biochemical; details: LasB IC50, FRET-based assay
[4] = target: T1, collagenase unit of ColQ1 (ColQ1-CU) (Bacillus cereus, UniProt B9J3S4); assay: biochemical; design: species or system B. cereus strain Q1; details: read-out: ColQ1-CU % inhibition @ 100 μM
T1 construct: the collagenase unit of ColQ1 (ColQ1-CU) from B. cereus strain Q1
T1 sequence (B9J3S4 94-765 limits assumed): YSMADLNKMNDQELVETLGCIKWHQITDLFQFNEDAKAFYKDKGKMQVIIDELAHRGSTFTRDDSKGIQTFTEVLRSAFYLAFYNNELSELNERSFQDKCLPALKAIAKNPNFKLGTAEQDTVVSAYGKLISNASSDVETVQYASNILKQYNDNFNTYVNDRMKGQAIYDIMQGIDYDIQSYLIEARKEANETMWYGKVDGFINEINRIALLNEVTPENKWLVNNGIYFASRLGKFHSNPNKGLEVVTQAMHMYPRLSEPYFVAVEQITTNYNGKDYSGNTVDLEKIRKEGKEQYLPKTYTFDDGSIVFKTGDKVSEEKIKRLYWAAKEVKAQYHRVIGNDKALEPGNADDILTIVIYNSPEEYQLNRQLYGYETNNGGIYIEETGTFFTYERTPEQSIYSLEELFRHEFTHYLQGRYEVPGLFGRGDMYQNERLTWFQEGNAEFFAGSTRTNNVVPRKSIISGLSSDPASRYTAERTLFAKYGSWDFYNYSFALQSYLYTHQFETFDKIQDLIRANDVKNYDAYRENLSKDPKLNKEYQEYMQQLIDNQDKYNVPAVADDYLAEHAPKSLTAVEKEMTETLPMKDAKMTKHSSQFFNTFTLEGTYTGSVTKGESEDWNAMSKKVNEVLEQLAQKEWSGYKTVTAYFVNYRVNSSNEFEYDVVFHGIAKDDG

[5] = target: collagenase unit of ColG (ColG-CU) (Hathewaya histolytica, UniProt Q9X721); assay: biochemical; design: species or system C. histolyticum; details: read-out: ColG-CU % inhibition @ 100 μM
Sequence of collagenase unit of ColG (ColG-CU) (Q9X721 111-786): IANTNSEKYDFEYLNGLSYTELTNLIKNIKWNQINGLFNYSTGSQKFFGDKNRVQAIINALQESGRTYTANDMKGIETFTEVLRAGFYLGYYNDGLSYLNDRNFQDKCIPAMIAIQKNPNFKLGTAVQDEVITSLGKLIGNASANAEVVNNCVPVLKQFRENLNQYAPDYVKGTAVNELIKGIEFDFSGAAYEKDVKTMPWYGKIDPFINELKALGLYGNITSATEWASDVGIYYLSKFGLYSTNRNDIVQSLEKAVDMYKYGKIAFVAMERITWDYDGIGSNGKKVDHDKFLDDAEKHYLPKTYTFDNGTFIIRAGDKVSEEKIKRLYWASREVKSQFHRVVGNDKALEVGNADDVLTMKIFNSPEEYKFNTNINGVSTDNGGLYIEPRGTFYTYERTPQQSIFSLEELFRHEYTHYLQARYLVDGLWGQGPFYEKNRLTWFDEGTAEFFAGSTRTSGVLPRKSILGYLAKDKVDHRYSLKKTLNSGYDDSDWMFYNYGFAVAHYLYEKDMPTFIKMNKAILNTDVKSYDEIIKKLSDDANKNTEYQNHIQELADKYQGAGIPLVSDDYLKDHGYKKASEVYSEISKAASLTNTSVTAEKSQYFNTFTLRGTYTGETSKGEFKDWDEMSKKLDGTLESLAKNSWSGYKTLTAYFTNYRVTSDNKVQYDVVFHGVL

[6] = target: peptidase domain of ColH (ColH-PD) (Hathewaya histolytica, UniProt Q46085); assay: biochemical; design: species or system Clostridium histolyticum
Sequence of peptidase domain of ColH (ColH-PD) (Q46085 331-721 limits assumed): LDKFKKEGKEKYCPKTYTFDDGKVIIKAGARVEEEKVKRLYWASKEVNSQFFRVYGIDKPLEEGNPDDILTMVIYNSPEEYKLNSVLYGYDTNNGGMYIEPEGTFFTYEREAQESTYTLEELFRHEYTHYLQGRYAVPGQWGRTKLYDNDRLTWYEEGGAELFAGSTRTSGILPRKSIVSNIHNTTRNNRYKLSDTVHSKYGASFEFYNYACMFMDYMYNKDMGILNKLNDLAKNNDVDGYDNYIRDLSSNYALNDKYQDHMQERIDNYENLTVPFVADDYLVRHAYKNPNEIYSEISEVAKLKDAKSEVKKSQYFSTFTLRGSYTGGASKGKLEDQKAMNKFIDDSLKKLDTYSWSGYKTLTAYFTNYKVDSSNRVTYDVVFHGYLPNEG

[7] = target: peptidase domain of ColT (ColT-PD) (Clostridium tetani, UniProt Q899Y1); assay: biochemical; design: species or system C. tetani; details: read-out: ColT-PD % inhibition @ 100 μM
Sequence of peptidase domain of ColT (ColT-PD) (Q899Y1 340-731 limits assumed): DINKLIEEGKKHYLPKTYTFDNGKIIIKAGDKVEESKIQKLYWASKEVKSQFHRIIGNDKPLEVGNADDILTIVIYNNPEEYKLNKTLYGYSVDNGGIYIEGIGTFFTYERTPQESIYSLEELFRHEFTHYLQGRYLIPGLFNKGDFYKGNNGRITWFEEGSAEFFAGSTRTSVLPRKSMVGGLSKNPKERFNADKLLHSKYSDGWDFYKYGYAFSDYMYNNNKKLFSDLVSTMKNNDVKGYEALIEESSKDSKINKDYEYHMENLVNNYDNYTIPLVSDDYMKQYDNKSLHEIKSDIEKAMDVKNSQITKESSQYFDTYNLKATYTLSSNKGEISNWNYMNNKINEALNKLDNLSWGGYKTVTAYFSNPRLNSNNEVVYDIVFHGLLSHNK

Sequence of LasB (Q02RJ6 198-498): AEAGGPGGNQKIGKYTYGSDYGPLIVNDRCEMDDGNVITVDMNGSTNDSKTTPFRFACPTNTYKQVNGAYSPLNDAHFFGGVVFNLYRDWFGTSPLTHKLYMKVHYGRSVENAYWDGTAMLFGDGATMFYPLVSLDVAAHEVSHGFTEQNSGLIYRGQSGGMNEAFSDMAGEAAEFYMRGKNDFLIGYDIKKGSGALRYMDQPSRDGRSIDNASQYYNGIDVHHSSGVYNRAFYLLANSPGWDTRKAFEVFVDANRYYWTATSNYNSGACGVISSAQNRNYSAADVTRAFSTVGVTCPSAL

CC(C(=O)NO)N(Cc1ccccc1[N+](=O)[O-])S(=O)(=O)c1c(F)c(F)c(F)c(F)c1F (stereo not drawn) [Compound 3]
Ki (ColH): 0.005 µM

CC(NC(=O)C(Cc1ccccc1)NC(=O)NS(=O)(=O)c1ccc(F)cc1)C(=O)Nc1nnc(S)s1 (stereo not drawn) [Compound 4]
Ki (ColH): 0.2 µM

CC(=O)c1ccc(NC(=O)CS)cc1 [Compound 6, reference compound]
IC50 (in vitro [1]): > 100 µM
IC50 (in vitro [2]): > 100 µM
IC50 (in vitro [3]): 100 µM

COc1ccc(N2C(=O)CC(S)C2=O)cc1 (stereo not drawn) [Compound 20]
IC50 (LasB): 112 ± 8.9 µM
inhibition at 100 µM [4]: 99 ± 1%
inhibition at 100 µM [5]: 85 ± 3%
IC50 [6]: 0.32 ± 0.05 µM
inhibition at 1 µM ([6]; read-out: ColH-PD % inhibition @ 1 μM): 74%
inhibition at 100 µM ([6]; read-out: ColH-PD % inhibition @ 100 μM): 95 ± 1%
inhibition at 100 µM [7]: 89 ± 4%
